One data set relates to L. peruviana LCA08. As to the kind of experiment: Activity against macrophages infected with Leishmania amastigotes. The settings on record: read-out: IC50 L. peruviana LCA08, 48 h.
Another data set concerns L. amazonensis Lma CL1. Described as above.
The next data set relates to peritoneal macrophages. In words: Toxicity to peritoneal macrophages (Trypan Blue count). Format: cell-based, BALB/C mouse.
Data set [1] has as its system axenic amastigotes of L. amazonensis (strain MHOM/BR/76/LTB-012).
For the next data set, the system named is L. braziliensis PER006. As to the kind of experiment: Activity against macrophages infected with Leishmania amastigotes. The note with it: read-out: IC50 L. braziliensis PER006, 48 h.
The subject of a further data set is HT-29 cells. As to the kind of experiment: Cell growth inhibition bioassay (sulforhodamine B). The note with it: Homo sapiens, HT-29; 48 h, SRB; read-out: GI50 in indicated cell line: HT-29. The format is cell-based, human. The method in brief:
(§1)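 Cells were exposed to compound alongside matched solvent controls, then stained with sulforhodamine B. Percent growth inhibition was calculated from dye absorbance against the control.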

The subject of a further data set is H460 cells. As to the kind of experiment: Cell growth inhibition bioassay (sulforhodamine B). The settings on record: Homo sapiens, NCI-H460; 48 h, SRB; read-out: GI50 in indicated cell line: H460. Format: cell-based, human. The method in brief:
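Human cancer cells (MCF-7 breast, DU145 and PC3 prostate, H460 large cell lung) were treated with compounds. Growth relative to solvent control was quantified by SRB protein stain.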

The next data set concerns MCF-7 cells. In words: Cell growth inhibition bioassay (sulforhodamine B). The settings on record: Homo sapiens, MCF7; 48 h, SRB; read-out: GI50 in indicated cell line: MCF-7. Format: cell-based, human. The method in brief:
as §1

A further data set has as its system M-14 cells. As to the kind of experiment: Cell growth inhibition bioassay (sulforhodamine B). The format is cell-based, human. The settings on record: Homo sapiens, M14; 48 h, SRB; read-out: GI50 in indicated cell line: M-14. The essentials: as §1
The next data set deals with DU145 cells. In words: Cell growth inhibition bioassay (sulforhodamine B). The settings on record: Homo sapiens, DU-145; 48 h, SRB; read-out: GI50 in indicated cell line: DU145. The format is cell-based, human. The essentials:
as §1

Another data set concerns K562 cells. As to the kind of experiment: Cell growth inhibition bioassay (sulforhodamine B). Format: cell-based, human. The settings on record: Homo sapiens, K562; 48 h, SRB; read-out: GI50 in indicated cell line: K562. The method in brief: as §1
A further data set relates to PC3 cells. In words: Cell growth inhibition bioassay (sulforhodamine B). Format: cell-based. The note with it: Homo sapiens, PC-3; 48 h, SRB; read-out: GI50 in indicated cell line: PC3. As for the experimental part:
The cytotoxicity of compounds was assayed as follows. […] Appropriate solvent controls were tested for comparison. The percent inhibition of cell growth relative to the control was evaluated colorimetrically using a sulforhodamine B dye by comparison to the control. The calorimetric procedure followed that published in Skehan et al., J. Nat. Cancer Inst., […], pp. 1107-1112 (1990) and Boyd & Paull, Drug Dev. Res., Vol. 34, pp. 91-109 (1995). […] The cell lines are: 3T3 cells are BALB/3T3 clone A31 embryonic mouse fibroblast cells; H460 cells are human large cell lung cancer cells; DU145 cells are human prostate carcinoma cells; MCF-7 cells are human breast adenocarcinoma cells; M-14 cells are human melanoma cells; HT-29 cells are human colon adenocarcinoma cells; PC3 cells are human prostate adenocarcinoma cells; K562 cells are human chronic myelogenous leukemia cells; and VERO cells are African Green Monkey kidney epithelial cells.

Another data set concerns 3T3 cells. As to the kind of experiment: Cell growth inhibition bioassay (sulforhodamine B). The format is cell-based, mouse. The note with it: Mus musculus, NIH3T3; 48 h, SRB; read-out: GI50 in indicated cell line: 3T3. The method in brief:
as §1

In data set [2] the test system is axenic amastigotes of L. amazonensis (strain MHOM/BR/76/LTB-012). In words: microbe, parasite or virus in culture. The settings on record: Leishmania amazonensis, 72 h, read-out: IC50 L. amazonensis.
Data set [3] has as its system Trypanosoma cruzi (Tulahuen C4). As to the kind of experiment: In vitro anti-T. cruzi activity (β-galactosidase CPRG colorimetric assay in VERO monolayer). The settings on record: for T. cruzi Inhib. (%) / inhibition at 10 µg/mL: 10 μg/mL of each compound, 120 hours; for inhibition at 10 µg/mL / IC50: Trypanosoma cruzi, TULAHUEN, Vero; for inhibition at 10 µg/mL: 120 h, read-out: T. cruzi Inhib. (%). Format: cell-based.

Data set [4] can be described thus: Cytotoxicity on VERO cells (MTT), anti-T. cruzi study. The note with it: African green monkey, VERO cells, IC50 - VERO Cytotoxicity, Table 2.
In a further data set the test system is VERO cells. Described as above. The settings on record: for IC50: Chlorocebus sabaeus, Vero, read-out: IC50 VERO, Table 3; for IC50 - VERO Cytotoxicity: Table 2.
[5] abbreviates: Table 3, read-out: IC50 T. cruzi.
Where [6] appears, read: Mus musculus, Peritoneal macrophage, 48 h, Table 7, read-out: IC50 Macrophage.
The mark [7] stands for this setting: Table 2, read-out: IC50 - T. cruzi.
Where [8] appears, read: Leishmania peruviana, Macrophage.
Setting [9] is: Leishmania amazonensis, Macrophage, 48 h, read-out: IC50 L. amazonensis Lma CL1.
[10] abbreviates: compounds 5 mg/kg/day, Glucantime 33 mg/kg/day, intralesional.
The mark [11] stands for this setting: Leishmania braziliensis, Macrophage.

Converted amounts (≈) assume the structure as drawn. Read-outs that look alike come from different tables or passages of the source. Some results are limits rather than exact numbers.

Experimental for L. amazonensis Lma CL1: (§2) A cloned line of Leishmania amazonensis(strain MHOM/BR/76/LTB-012) was used in all experiments. Axenically grown amastigote forms of L. amazonensis were maintained by weekly subpassages in MAA/20 medium (Sereno and Lemesre, Antimicrobial Agents and Chemotherapy 41, 972-976 (1997)) at 32±1° C. in 25 cm^2 tissue culture flasks. L. peruviana (strain MHOM/PE/LCA08) and L. braziliensis (strainMHOM/PE/PER006) were maintained in the promastigote stage in a biphasic medium (blood agar with 0.89% NaCl, pH 7.4) at 24° C., with sub-passage every 3 to 4 days. Promastigotes (5×10^6 parasites) were then transferred to 25 cm2 tissue culture flasks containing 5 ml of M199 medium supplemented with 10% foetal bovine serum (FBS), pH 7.4. After 4 days, exponential phase promastigotes were centrifuged for 10 minutes at 1500 g and 4° C. The supernatant was discarded and replaced by fresh M199 medium supplemented with 20% FBS, pH 5.5. Axenic amastigotes transformation was then induced by increasing the temperature to 34° C. and incubating for 96 h (Teixeira et al., Parasitology Research 88, 963-968 (2002)).
(§3) Extracted cells were immediately deposited on sterile 4×4 mm cover glasses and placed in each well of a 96-well plate. Plates were incubated for 24 h at 37° C., 5% CO2 to allow cell adhesion (Castillo et al, Journal of Ethnopharmacology 112, 410-414 (2007)). Pre-warmed complete M199 medium was used twice to remove non-adherent cells. A neutral red method (Fautz et al., Mutation Research 253, 173-179 (1991)) was employed to determine cell concentration. Approximately 7×10^4 viable cells were deposited in each well for adhesion.
(§4) Infection of macrophages by amastigotes was determined as follows. […] Twelve hours after infection, a solution of the compounds to be tested was added to the cultures at various concentrations and maintained at 37° C. in 5% CO2 for a further forty-eight hours more. The plates were fixed with methanol and stained with 10% Giemsa stain. The percentage of infected macrophages was determined microscopically at 100 times magnification. The number of intracellular amastigotes was determined in 300 cells. Following Delorenzi et al. Antimicrobial Agents and Chemotherapy, 45, 1349-1354 (2001)) the percentage of infection rate (% IR) of each culture was calculated as follows: % IR=100−(infection rate of the treated culture/infection rate of the untreated culture)×100.
(§5) All experiments were performed in triplicate. ANOVA was used to test for statistical significance of differences (Epi-Info, Statview student program). The total parasite burden was calculated as a mean number of amastigotes per cells multiplied by the number of infected macrophages.
Experimental for L. braziliensis PER006: as §2, §3, §4, §5

Consider `C[C@@H]1[C@H](O)[C@@H](C)/C=C/C=C/C=C/C=C/C=C/C=C/C=C/[C@H](O[C@@H]2O[C@H](C)[C@@H](O)[C@H](N)[C@@H]2O)C[C@@H]2O[C@](O)(C[C@@H](O)C[C@@H](O)[C@H](O)CC[C@@H](O)C[C@@H](O)CC(=O)O[C@H]1C)C[C@H](O)[C@H]2C(=O)O` [Amphotericin B, reference compound], for which the IC50 (usually the concentration at which inhibition is half-maximal) was determined as 0.1 µM in the data set with L. peruviana LCA08 (infected macrophages); 0.4 µM in the data set with L. amazonensis Lma CL1 (read-out: IC50 L. amazonensis Lma CL1, infected macrophages, 48 h); 5.4 µM with peritoneal macrophages; 5.3 µM in the data set with peritoneal macrophages (48 h, Table 7, read-out: IC50 Macrophage); 0.14 µM in data set [1]; 0.1 µM in data set [1] (read-out: IC50 L. amazonensis, axenic amastigotes, 72 h, Table 7). For the same compound, the IC50 in data set [1] (read-out: L. amazonensis IC50, Table 8b) turned out to be 0.1 µM; with L. braziliensis PER006 (infected macrophages), 0.1 µM.

On to `O=c1[nH]cc(F)c(=O)[nH]1` [Compound 5FU, 5-Fluorouracil, reference compound], for which the GI50 (commonly the concentration that inhibits growth by half) in the data set on HT-29 cells was 8.9 µM; with H460 cells, 4.1 µM; with MCF-7 cells, 6.5 µM; in the data set on M-14 cells, 22.4 µM; with DU145 cells, 15.4 µM; in the data set with K562 cells, 16.7 µM. The GI50 with PC3 cells is 14.6 µM; with 3T3 cells it was less than 1.54 µM.

For the compound `COc1ccc(/C=C/C(=O)c2c(O)cc(OC)cc2OC)cc1` [Compound I-01, (2E)-1-(2-Hydroxy-4,6-dimethoxyphenyl)-3-(4-methoxyphenyl)-2-propen-1-one], the GI50 worked out at 45.3 µM with HT-29 cells; 24.1 µM in the data set on H460 cells; 17.5 µM in the data set on MCF-7 cells; 22.5 µM in the data set on M-14 cells; 30.8 µM with DU145 cells; 20.5 µM in the data set with K562 cells. Also, the results for the GI50 in the data set on PC3 cells and in the data set with 3T3 cells were 15.2 µM and 17.2 µM, respectively. The IC50 in [2] is 17.2 µM; in data set [3] (setting [5]) it was more than 25 µM. Besides, the “T. cruzi Inhib. (%)” value in [3] is recorded as 41.36%. In addition, the inhibition at 10 µg/mL in data set [3] is 29%.

As for `COc1cc(O)c(C(=O)/C=C/c2ccc3c(c2)OCO3)c(OC)c1` [Compound I-02, (2E)-3-(1,3-Benzodioxol-5-yl)-1-(2-hydroxy-4,6-dimethoxyphenyl)-2-propen-1-one], the 50% growth inhibitory concentration (GI50) in the data set with HT-29 cells was more than 190 µM; in the data set on H460 cells, more than 190 µM; in the data set with MCF-7 cells, 140 µM; with M-14 cells it was more than 190 µM; in the data set on DU145 cells it was more than 190 µM; with K562 cells, 18.9 µM. In addition, the figures for the concentration for 50% growth inhibition (GI50) in the data set with PC3 cells and in the data set with 3T3 cells were 118 µM and 39 µM, respectively. The IC50 in data set [2] is more than 300 µM; in [3] (setting [5]), more than 25 µM. Also, the “T. cruzi Inhib. (%)” value in data set [3] was 11.77%. Further, in data set [3], the inhibition at 10 µg/mL amounted to 22.8%.

`C=CCOc1cc(OC)c(C(=O)/C=C/c2ccc(OC)cc2)c(OCC=C)c1` [Compound I-10, (2E)-1-[2-Methoxy-4,6-bis(2-propenyloxy)phenyl]-3-(4-methoxyphenyl)-2-propen-1-one]: the IC50 in data set [4] was 48 µg/mL (≈ 126 µM); in the data set with VERO cells, 99.9 µM; in [2], 5.5 µM; in the data set on peritoneal macrophages (setting [6]), 18.7 µM; in [3] (setting [7]), 7.28 µg/mL; in data set [3] (setting [5]), 21.4 µM. For the same compound, the “IC50 - VERO Cytotoxicity” value with VERO cells turned out to be 38.00 µg/mL (≈ 99.9 µM). Moreover, the GI50 amounted to 28.4 µM in the data set on HT-29 cells; 20 µM in the data set on H460 cells; 19.5 µM with MCF-7 cells; 27.6 µM with M-14 cells; 21 µM with DU145 cells; 16.6 µM with K562 cells. For the same compound, the GI50 came to 18.1 µM in the data set with PC3 cells and 41 µM with 3T3 cells. For the same compound, the “T. cruzi Inhib. (%)” value in [3] amounted to 62.86%. The “IC50 - T. cruzi” value in data set [3] (Table 2) worked out at 8.14 µg/mL (≈ 21.4 µM). In addition, the inhibition at 10 µg/mL in data set [3] was found to be 63.5%.

In the case of `C=CCOc1cc(OC)c(C(=O)/C=C/c2ccc3c(c2)OCO3)c(OCC=C)c1` [Compound I-19, (2E)-3-(1,3-Benzodioxol-5-yl)-1-[2-methoxy-4,6-bis(2-propenyloxy)phenyl]-2-propen-1-one], the IC50 was found to be 49 µg/mL (≈ 124 µM) in data set [4]; 73.5 µM with VERO cells; 6.6 µM in data set [2]; 7.33 µg/mL in data set [3] (setting [7]); 13.6 µM in data set [3] (setting [5]). Moreover, in the data set on VERO cells, the “IC50 - VERO Cytotoxicity” value was determined as 29.00 µg/mL (≈ 73.5 µM). Further, the GI50 in the data set with HT-29 cells was 24.1 µM; in the data set with H460 cells, 14.5 µM; in the data set with MCF-7 cells, 10.9 µM; with M-14 cells, 17.2 µM; in the data set on DU145 cells it was 17.5 µM; in the data set with K562 cells it was 12.2 µM. The GI50 in the data set with PC3 cells came out at 9.6 µM; in the data set on 3T3 cells, 31.7 µM. Also, the “T. cruzi Inhib. (%)” value in data set [3] was found to be 58.82%. The “IC50 - T. cruzi” value in data set [3] (Table 2) turned out to be 5.35 µg/mL (≈ 13.6 µM). For the same compound, in data set [3], the inhibition at 10 µg/mL stood at 74.1%.

As to `C=CCOc1cc(OC)c(C(=O)/C=C/c2ccccn2)c(OCC=C)c1` [Compound I-27, (2E)-1-[2-Methoxy-4,6-bis(2-propenyloxy)phenyl]-3-(2-pyridinyl)-2-propen-1-one], the IC50 in the data set with L. peruviana LCA08 (setting [8]) is 4 µM; with L. amazonensis Lma CL1 (setting [9]) it was 0.9 µM; with L. amazonensis Lma CL1 (Leishmania amazonensis, Macrophage, read-out: bioactivities (IC50) in macrophage-infected model) it was 0.9 to 4 µM; in data set [4], 1 µg/mL (≈ 2.85 µM); in the data set on VERO cells, 2.8 µM; in [2] it was 1.1 µM. In addition, the IC50 is 12.5 µM in the data set on peritoneal macrophages (setting [6]), 0.67 µg/mL in [3] (setting [7]), 1.9 µM in data set [3] (setting [5]) and 1.4 µM in the data set with L. braziliensis PER006 (setting [11]). Also, the “Reduction of parasite burden (column After 7 weeks, analyzed after 6 weeks treatment)” value with L. amazonensis (5 mg/kg/day intralesional, after 6 weeks treatment (footnote d)) is given as 25^d %. Further, the Lesion diameter in the data set with L. amazonensis (setting [10]) is 4.1 mm. In the data set with L. amazonensis (setting [10]), the “Reduction of parasite burden After 4 weeks” value is on record as −4%. For the same compound, the inhibition at 10 µg/mL in data set [3] was found to be 77.2%.

Turning to `COCOc1cc(O)c(C(=O)/C=C/c2cc(OC)c(OC)c(OC)c2)c(OC)c1` [Compound I-46], the IC50 in the data set on L. peruviana LCA08 (setting [8]) was 19.3 µM; in the data set with L. amazonensis Lma CL1 (setting [9]) it was 28.7 µM; in data set [2] it was 6.2 µM; in the data set on peritoneal macrophages (setting [6]) it was 132 µM; in the data set with L. braziliensis PER006 (setting [11]), 13.1 µM. Further, the cutaneous toxicity result with L. amazonensis (at the tested doses (5 mg/kg/day intralesional)) is on record as “did not exhibit any cutaneous toxicity”. In the data set on L. amazonensis (setting [10]), this compound yielded a Lesion diameter of 5.1 mm. In addition, the “Reduction of parasite burden After 4 weeks” value with L. amazonensis (setting [10]) came to 74%. Also, in the data set on L. amazonensis (compounds 5 mg/kg/day, Glucantime 33 mg/kg/day, intralesional, after 7 weeks), the “Reduction of parasite burden After 7 weeks” value turned out to be 41%.

For the origin of these results see US9061984B2 (University of Louisville Research Foundation, Inc., priority 2008, dated 2015).
